# Experimental data from patent publication US11213517B2, “Pharmaceutical combination comprising a T-type calcium channel blocker” (IDORSIA PHARMACEUTICALS LTD, priority 2016, dated 2022).
# Values joined by “and” are separate entries in the source; they are usually repeats but may differ in a detail not shown here. Equal values may be shown once. Read-outs that look alike come from different tables or passages of the source.
# Tests used:
# [1] = system: audiogenic seizure-sensitive juvenile DBA/2J mice; assay: Audiogenic seizure-sensitive juvenile DBA/2J mouse model of generalized tonic-clonic seizures; assay type: in vivo; parameters: key: 0 none, 1 wild running, 2 clonus, 3 hind-limb tonic extension; details: oral gavage, mean ± SEM
# Description: Audiogenic Seizure-Sensitive Juvenile DBA/2J Mouse Model of Generalized Tonic-Clonic Seizures
# The inbred DBA/2J mouse strain carries an increased general susceptibility for acute generalized convulsive seizures induced by either pharmacological, electrical or, as juvenile, auditory stimuli. At the age of 17 to 28 days (juvenile), they show tonic-clonic convulsions when exposed to a loud tone.
# Male juvenile DBA/2J mice (22-24 days old, body weight between 6.6 and 14.5 grams) were used. Each mouse was placed individually in the exposure chamber, an hemispheric acrylic glass dome (diameter: 50 cm) within a sound-attenuated box. After 60 seconds of habituation, an auditory stimulus of mixed frequency tone (15-20 kHz at 110 dB) was played from a speaker placed on the top center of the dome.
# The sound-attenuated box was equipped with lights and a camera system in order to observe and record the behavioral seizure response classified as following: • stage 0, no response • stage 1, wild running • stage 2, clonus • stage 3, tonic extension of the hind limbs.
# (§1) Different combination efficacy experiments are performed. […] Each experiment consists of four treatment groups: • 1. Vehicle (10% Polyethylene glycol400 (PEG400)/90% methylcellulose (0.5% in water; MC0.5%)), 3 h before exposure to the auditory stimulus+vehicle, 1 h before exposure to the auditory stimulus; • 2. COMPOUND 1 (in 10% PEG400/90% MC0.5%), 3 h before exposure to the auditory stimulus+vehicle, 1 h before exposure to the auditory stimulus; • 3. Vehicle, 3 h before exposure to the auditory stimulus+AED (in 10% PEG400/90% MC0.5%), 1 h before exposure to the auditory stimulus; and • 4. COMPOUND 1 (in 10% PEG400/90% MC0.5%), 3 h before exposure to the auditory stimulus+AED (in 10% PEG400/90% MC0.5%), 1 h before exposure to the auditory stimulus.
# [2] = Plasma and brain concentrations of drugs at the end of the audiogenic seizure experiment (LC-MS); assay type: in vivo, mouse; details: for plasma and brain concentrations after administration of the compounds alone or in combination: juvenile DBA/2J mice; for concentration at 1 h: DBA/2J, mouse, oral
# Experimental: Briefly, blood was sampled from the vena cava caudalis with a syringe pre-filled with EDTA (ethylenediamine tetraacetic acid) as anticoagulant and centrifuged to yield plasma (for 10 minutes, at 4° C. and 5000 rpm (rounds per minute)). Brain was sampled and homogenized into one volume of cold phosphate buffer (pH 7.4). Following extraction with methanol, concentrations of the compound in plasma and brain were determined using liquid chromatography coupled to mass spectrometry.
# as §1
# [3] = analyte LTG, vehicle 3 h + LTG 10 mg/kg 1 h before stimulus, oral gavage, mean ± SEM
structure (smiles),measurement,setting,value
"CC[C@@H](C(N)=O)N1CCCC1=O [LEV, (S)-2-(2-oxopyrrolidin-1-yl)butanamide]",Seizure stage (maximal seizure stage observed during exposure to auditory stimulus),[1]; vehicle 3 h + LEV 1 mg/kg 1 h before stimulus,3.0 ± 0.0
same,Seizure stage (maximal seizure stage observed during exposure to auditory stimulus),"[1]; vehicle 3 h + LEV 1 mg/kg 1 h before stimulus, listed as levetiracetam",3
same,Seizure stage (maximal seizure stage observed during exposure to auditory stimulus),[1]; vehicle 3 h + LEV 3 mg/kg 1 h before stimulus,2.1 ± 0.4 and 2.6 ± 0.3
same,plasma and brain concentrations after administration of the compounds alone or in combination,[2]; COMPOUND 1 and LEV,similar
same,concentration at 1 h,"[2]; brain, 1 mg/kg, analyte LEV, vehicle 3 h + LEV 1 mg/kg 1 h before stimulus, oral gavage, mean ± SEM, read-out: Brain concentration total",224 ± 20 ng/g
same,concentration at 1 h,"[2]; brain, 3 mg/kg, analyte LEV, vehicle 3 h + LEV 3 mg/kg 1 h before stimulus, oral gavage, mean ± SEM, read-out: Brain concentration total",677 ± 70 ng/g
same,concentration at 1 h,"[2]; brain, 10 mg/kg, analyte LEV, vehicle 3 h + LEV 10 mg/kg 1 h before stimulus, oral gavage, mean ± SEM, read-out: Brain concentration total",2130 ± 267 ng/g
same,concentration at 1 h,"[2]; brain, 50 mg/kg, analyte LEV, vehicle 3 h + LEV 50 mg/kg 1 h before stimulus, oral gavage, mean ± SEM, read-out: Brain concentration total",11100 ± 886 ng/g
same,concentration at 1 h,"[2]; brain, analyte LEV, COMPOUND 1 10 mg/kg 3 h + LEV 1 mg/kg 1 h before stimulus, oral gavage, mean ± SEM, read-out: Brain concentration total",310 ± 34 ng/g
same,concentration at 1 h,"[2]; brain, analyte LEV, COMPOUND 1 10 mg/kg 3 h + LEV 3 mg/kg 1 h before stimulus, oral gavage, mean ± SEM, read-out: Brain concentration total",787 ± 39 ng/g
same,concentration at 1 h,"[2]; brain, analyte LEV, COMPOUND 1 10 mg/kg 3 h + LEV 10 mg/kg 1 h before stimulus, oral gavage, mean ± SEM, read-out: Brain concentration total",2590 ± 169 ng/g
same,concentration at 1 h,"[2]; brain, analyte LEV, COMPOUND 1 10 mg/kg 3 h + LEV 50 mg/kg 1 h before stimulus, oral gavage, mean ± SEM, read-out: Brain concentration total",12600 ± 549 ng/g
same,concentration at 1 h,"[2]; brain, analyte LEV, COMPOUND 1 30 mg/kg 3 h + LEV 3 mg/kg 1 h before stimulus, oral gavage, mean ± SEM, read-out: Brain concentration total",714 ± 59 ng/g
same,concentration at 1 h,"[2]; brain, analyte LEV, COMPOUND 1 30 mg/kg 3 h + LEV 10 mg/kg 1 h before stimulus, oral gavage, mean ± SEM, read-out: Brain concentration total",2150 ± 142 ng/g
same,concentration at 1 h,"[2]; brain, analyte LEV, COMPOUND 1 30 mg/kg 3 h + LEV 50 mg/kg 1 h before stimulus, oral gavage, mean ± SEM, read-out: Brain concentration total",13500 ± 1380 ng/g
same,concentration at 1 h,"[2]; plasma, 1 mg/kg, analyte LEV, vehicle 3 h + LEV 1 mg/kg 1 h before stimulus, oral gavage, mean ± SEM, read-out: Plasma concentration total",541 ± 48 ng/mL
same,concentration at 1 h,"[2]; plasma, 3 mg/kg, analyte LEV, vehicle 3 h + LEV 3 mg/kg 1 h before stimulus, oral gavage, mean ± SEM, read-out: Plasma concentration total",1170 ± 53 ng/mL
same,concentration at 1 h,"[2]; plasma, 10 mg/kg, analyte LEV, vehicle 3 h + LEV 10 mg/kg 1 h before stimulus, oral gavage, mean ± SEM, read-out: Plasma concentration total",4530 ± 473 ng/mL
same,concentration at 1 h,"[2]; plasma, 50 mg/kg, analyte LEV, vehicle 3 h + LEV 50 mg/kg 1 h before stimulus, oral gavage, mean ± SEM, read-out: Plasma concentration total",26500 ± 2810 ng/mL
same,concentration at 1 h,"[2]; plasma, analyte LEV, COMPOUND 1 10 mg/kg 3 h + LEV 1 mg/kg 1 h before stimulus, oral gavage, mean ± SEM, read-out: Plasma concentration total",564 ± 42 ng/mL
same,concentration at 1 h,"[2]; plasma, analyte LEV, COMPOUND 1 10 mg/kg 3 h + LEV 3 mg/kg 1 h before stimulus, oral gavage, mean ± SEM, read-out: Plasma concentration total",1250 ± 53 ng/mL
same,concentration at 1 h,"[2]; plasma, analyte LEV, COMPOUND 1 10 mg/kg 3 h + LEV 10 mg/kg 1 h before stimulus, oral gavage, mean ± SEM, read-out: Plasma concentration total",5780 ± 232 ng/mL
same,concentration at 1 h,"[2]; plasma, analyte LEV, COMPOUND 1 10 mg/kg 3 h + LEV 50 mg/kg 1 h before stimulus, oral gavage, mean ± SEM, read-out: Plasma concentration total",27000 ± 1350 ng/mL
same,concentration at 1 h,"[2]; plasma, analyte LEV, COMPOUND 1 30 mg/kg 3 h + LEV 3 mg/kg 1 h before stimulus, oral gavage, mean ± SEM, read-out: Plasma concentration total",1230 ± 64 ng/mL
same,concentration at 1 h,"[2]; plasma, analyte LEV, COMPOUND 1 30 mg/kg 3 h + LEV 10 mg/kg 1 h before stimulus, oral gavage, mean ± SEM, read-out: Plasma concentration total",3880 ± 226 ng/mL
same,concentration at 1 h,"[2]; plasma, analyte LEV, COMPOUND 1 30 mg/kg 3 h + LEV 50 mg/kg 1 h before stimulus, oral gavage, mean ± SEM, read-out: Plasma concentration total",26200 ± 2400 ng/mL
same,Brain concentration total,"[2]; analyte LEV, vehicle 3 h + LEV 3 mg/kg 1 h before stimulus, oral gavage, mean ± SEM",675 ± 82 ng/g
same,Brain concentration total,"[2]; analyte LEV, vehicle 3 h + LEV 10 mg/kg 1 h before stimulus, oral gavage, mean ± SEM",2307 ± 207 ng/g
same,Brain concentration total,"[2]; analyte LEV, vehicle 3 h + LEV 50 mg/kg 1 h before stimulus, oral gavage, mean ± SEM",11318 ± 1440 ng/g
"Nc1nnc(-c2cccc(Cl)c2Cl)c(N)n1 [LTG, 6-(2,3-dichlorophenyl)-1,2,4-triazine-3,5-diamine]",Seizure stage (maximal seizure stage observed during exposure to auditory stimulus),[1]; vehicle 3 h + LTG 3 mg/kg 1 h before stimulus,1.9 ± 0.2
same,Seizure stage (maximal seizure stage observed during exposure to auditory stimulus),"[1]; vehicle 3 h + LTG 3 mg/kg 1 h before stimulus, listed as lamotrigine",2
same,Seizure stage (maximal seizure stage observed during exposure to auditory stimulus),[1]; vehicle 3 h + LTG 30 mg/kg 1 h before stimulus,0.2 ± 0.2 #
same,plasma and brain concentrations after administration of the compounds alone or in combination,[2]; COMPOUND 1 and lamotrigine,similar
same,concentration at 1 h,"[2]; brain, 3 mg/kg, analyte LTG, vehicle 3 h + LTG 3 mg/kg 1 h before stimulus, oral gavage, mean ± SEM, read-out: Brain concentration total",1490 ± 128 ng/g
same,concentration at 1 h,"[2]; brain, 10 mg/kg, analyte LTG, vehicle 3 h + LTG 10 mg/kg 1 h before stimulus, oral gavage, mean ± SEM, read-out: Brain concentration total",3260 ± 144 ng/g
same,concentration at 1 h,"[2]; brain, 30 mg/kg, analyte LTG, vehicle 3 h + LTG 30 mg/kg 1 h before stimulus, oral gavage, mean ± SEM, read-out: Brain concentration total",8890 ± 248 ng/g
same,concentration at 1 h,"[2]; brain, analyte LTG, COMPOUND 1 10 mg/kg 3 h + LTG 10 mg/kg 1 h before stimulus, oral gavage, mean ± SEM, read-out: Brain concentration total",3690 ± 393 ng/g
same,concentration at 1 h,"[2]; brain, analyte LTG, COMPOUND 1 30 mg/kg 3 h + LTG 3 mg/kg 1 h before stimulus, oral gavage, mean ± SEM, read-out: Brain concentration total",1370 ± 100 ng/g
same,concentration at 1 h,"[2]; brain, analyte LTG, COMPOUND 1 30 mg/kg 3 h + LTG 10 mg/kg 1 h before stimulus, oral gavage, mean ± SEM, read-out: Brain concentration total",3660 ± 310 ng/g
same,concentration at 1 h,"[2]; brain, analyte LTG, COMPOUND 1 30 mg/kg 3 h + LTG 30 mg/kg 1 h before stimulus, oral gavage, mean ± SEM, read-out: Brain concentration total",8560 ± 853 ng/g
same,concentration at 1 h,"[2]; plasma, 3 mg/kg, analyte LTG, vehicle 3 h + LTG 3 mg/kg 1 h before stimulus, oral gavage, mean ± SEM, read-out: Plasma concentration total",293 ± 27 ng/mL
same,concentration at 1 h,"[2]; plasma, 10 mg/kg, analyte LTG, vehicle 3 h + LTG 10 mg/kg 1 h before stimulus, oral gavage, mean ± SEM, read-out: Plasma concentration total",930 ± 77 ng/mL
same,concentration at 1 h,"[2]; plasma, 30 mg/kg, analyte LTG, vehicle 3 h + LTG 30 mg/kg 1 h before stimulus, oral gavage, mean ± SEM, read-out: Plasma concentration total",3560 ± 165 ng/mL
same,concentration at 1 h,"[2]; plasma, analyte LTG, COMPOUND 1 10 mg/kg 3 h + LTG 10 mg/kg 1 h before stimulus, oral gavage, mean ± SEM, read-out: Plasma concentration total",859 ± 101 ng/mL
same,concentration at 1 h,"[2]; plasma, analyte LTG, COMPOUND 1 30 mg/kg 3 h + LTG 3 mg/kg 1 h before stimulus, oral gavage, mean ± SEM, read-out: Plasma concentration total",284 ± 18 ng/mL
same,concentration at 1 h,"[2]; plasma, analyte LTG, COMPOUND 1 30 mg/kg 3 h + LTG 10 mg/kg 1 h before stimulus, oral gavage, mean ± SEM, read-out: Plasma concentration total",1330 ± 102 ng/mL
same,concentration at 1 h,"[2]; plasma, analyte LTG, COMPOUND 1 30 mg/kg 3 h + LTG 30 mg/kg 1 h before stimulus, oral gavage, mean ± SEM, read-out: Plasma concentration total",2800 ± 475 ng/mL
same,Brain concentration total,[2]; [3],4054 ± 323 ng/g
same,Plasma concentration total,[2]; [3],1203 ± 77 ng/mL
